Source: patent US20060281807A1, “Quassinoid compositions for the treatment of cancer and other proliferative diseases” (Tapestry Pharmaceuticals, Inc., priority 2005, published 2006)
≈ marks a conversion by molar mass, not a printed value. Where “and” joins values, the source holds several entries; their conditions need not be identical. Equal entries are not always repeated. Where two headings read alike, the source gives them in different places.

What was measured:
HCT-116 cells [1] = experiment: Clonogenic assay, HCT-116; assay type: cell-based, human; details: colonies at 7 days
Experimental: A clonogenic assay was performed using HCT-116 cells. Specifically, HCT-116 cells were seeded at 200 to 20,000 cells in 60 mm dishes. […] At either 2 hours or 24 hours following drug administration, the drug-containing media was removed, and fresh media without drug was added. In addition, one group of cells was subjected to continuous drug exposure for the entire incubation period. The dishes were incubated for 7 days (at 37° C. and 5% CO2), media was removed, and the colonies were stained with methylene blue. Colonies containing 50 cells or more were counted. The results were normalized to an untreated control. Plating efficiency for the untreated cells was about 90%. Repeat experiments also were carried out to define the cell survival range between 1 (100%) and 10^−3 (0.1%) survival. A survival rate of 10^−1 was chosen as the minimal level that would be required in vivo to achieve therapeutic efficacy against HCT-116 cells in tumor-bearing mice. The clonogenic dose response to 15-O-(3′-hydroxy-3′-isopropyl-4′-methylpentanoyl)bruceolide is illustrated in FIG. 4. The clonogenic dose response to 15-(3-isopropyl-4-methyl-2-pentenoyl)-bruceolide is illustrated in FIG. 5.

[2] = tested on: CCRF-CEM (human leukemia); experiment: Disk diffusion assay, zone of inhibition, CCRF-CEM; assay type: cell-based; details: 1 mg/mL
Experimental: (§1) A disk diffusion assay was performed to define the differential cell killing ability of 15-O-(3′-hydroxy-3′-isopropyl-4′-methylpentanoyl)bruceolide. Seven cell types were assayed: L1210 (ATCC CCL-219) (murine leukemia), CCRF-CEM (ATCC CCL-119) (human leukemia), Colon 38 (murine colon adenocarcinoma), HCT116 (ATCC CCL-247) (human colorectal carcinoma), H125 (human lung carcinoma). The murine and human granulocyte/macrophage progenitor cell line (CFU-GM), served as controls.
(§2) Colon 38 cells (about 1 gram) were cut into small fragments in 15 mL of Hank's Balanced Salt Solution (HBSS) over a 100-mesh sieve and gently forced through by the scissors with HBSS constantly perfusing the sieve. The resulting material was then drawn into and out of a 5 mL syringe without a needle to further disperse the cell clumps. The cell solution was diluted and plated in 0.3% agarose in DMEM plus 10% heat-inactivated Bovine Calf Serum (BCS). For plating of all of the cell types (except controls), the 60 mm plates were first prepared with a hard agar bottom layer (0.6% agar in RPMI-1640 plus 15% BCS).
(§3) A 15 μl sample of each compound was dropped onto a 6.5 mm disk (Baxter filter disks). The disks were allowed to dry overnight and then placed close to the edge of a petri dish. Depending upon the cell type, the dishes were incubated for 7 to 10 days, and examined by an inverted stereo-microscope (10×) for measurement of the zone of inhibition. The zone of inhibition was measured from the edge of the filter disk to the beginning of normal-sized colony formation. The diameter of the filter disk, 6.5 mm, was arbitrarily taken as a zone of 200 units. Compounds that were selective for killing solid tumors, as compared to leukemia or normal cells (“solid tumor selective”) were defined as those compounds which produced a difference in zones between solid tumor cells and either normal or leukemia cells of at least 250 units. The results of this analysis are set forth in Table 4, which illustrates the relative diameters of the zones of inhibition by various drugs on the growth of the respective cell types at various drug dilutions.

[3] = tested on: Colon 38 (murine colon adenocarcinoma); experiment: Disk diffusion assay, zone of inhibition, Colon 38; zone differentials, potency and product; assay type: cell-based; parameters: key to C38ΔL1210 / C38ΔCFU: difference of zone of inhibition values, in zone units; details: for zone of inhibition, Colon 38: 1 mg/mL; for Sum: C38ΔL1210 plus C38ΔCFU; for C38ΔL1210: Colon38 vs L1210 leukemia; for Product: potency multiplied by zone differentials
Experimental: as §1, §2, §3
The degree of differential sensitivity of several inventive compounds was compared with respect to the Colon38 cell line, the L1210 cell line, and the control CFU-GM cell lines. The degree of differential sensitivity was estimated by calculating the difference between the zone of inhibition values, as determined in Example 6, for the solid tumor compared to either the leukemia (C38ΔL1210) or normal cell (C38ΔCFU).
The potency of each of several inventive compounds was determined by identifying the dilution required to yield an average zone of inhibition of 500 units for the Colon38 cell type. Then the potency and the zone differentials were multiplied to define a “product” (see Table 5), which can be used to rank the compounds tested for their potential for further development; the greater the product value the greater the probability of useful chemotherapeutic utility.

L1210 (murine leukemia) = experiment: Disk diffusion assay, zone of inhibition, L1210; assay type: cell-based; details: 1 mg/mL
Experimental: as §1, §2, §3

HCT-116 cells [4] = experiment: HCT-116 cytotoxicity, viable cell count by trypan blue; assay type: cell-based, human; details: for IC90/IC50: HCT-116; for IC50 / IC90: HCT-116, 3 days with compound, viable cells, by interpolation
[5] = tested on: H125 (human lung carcinoma); experiment: Disk diffusion assay, zone of inhibition, H125; assay type: cell-based; details: 1 mg/mL
Experimental: as §1, §2
(§4) HCT116 and H125 cells were maintained in cell culture, and were removed from culture by a trypsin-collagenase-DNAase cocktail. The plating efficiencies of each cell type was sufficiently high that 30,000 cells in 3 mL produced the desired number of colonies (i.e., over 10,000 per plate) in 60 mm plates. This soft agar top layer (0.3% with the serum and media as above) plus the titrated tumor cells were poured into the plates and allowed to solidify.
as §3

[6] = tested on: HCT116 (human colorectal carcinoma); experiment: Disk diffusion assay, zone of inhibition, HCT116; assay type: cell-based; details: 1 mg/mL
Experimental: as §1, §2, §4, §3

murine CFU-GM = experiment: Disk diffusion assay, zone of inhibition, murine CFU-GM; assay type: cell-based; details: 1 mg/mL
Experimental: as §1
For CFU-GM cells, the femoral marrow of BD2F1 mice was flushed with MEM alpha (2 mL per femur). The cells were passed through an 18 gauge needle twice and the monodispersed suspension was counted. A total of 1.5×10^6 cells were plated in 3 mL of 0.3% agar with the addition of 10% L cell conditioned media, which provided colony stimulating factor, in MEM-alpha plus 10% BCS. For human CFU-GM, the cells were obtained from Poietic Technologies, Inc. (Gaithersburg, Md.) and washed twice with PBS before being titered and added to the agar mixture. The same cell number, culture conditions, and conditioning factors used with respect to the murine CFU-GM cells were used with the human cells, except that the cultures were assessed after 10 days of incubation.
as §3

[7] = Maximum tolerated dose in mice; details: intravenous, first stage, one mouse per dose
Experimental: Formulations containing 15-O-(3′-hydroxy-3′-isopropyl-4′-methylpentanoyl)bruceolide, 15-(3-isopropyl-4-methyl-2-pentenoyl)-bruceolide, and, for comparative purposes, bruceantin, or peninsularinone were prepared by solubilizing each compound in up to 100 mg/mL of ethanol. These solutions were diluted 1:1 with a stabilizer (Cremophor/propylene glycol). The solutions were then diluted in saline (1:10 minimum).
The maximum tolerated dose (MTD) was determined by a two-stage experiment. In the first stage, between 1 and 10 mg/mL of the formulation was prepared as described above. Next, 0.25 mL of the formulation was injected intravenously into one 20 gram mouse (0.75 mg/mouse). If the animal died within 30 days of injection, a series of subsequent 2-fold dilutions were administered to individual mice until an MTD was defined. […] The second stage of the study involved increasing the number of mice per dose to four, and retesting four dilutions that bracket the MTD from the individual mouse study. The four dilutions were the MTD, a dosage twice the MTD, a dosage ½ the MTD, and a dosage ¼ the MTD.

[8] = no dilution, 15 μl on disk, 6.5 mm = 200 units
[9] = difference between zone of inhibition values

Row | SMILES | Concentration Required for 10^−1 Survival Fraction (HCT-116 cells [1]; HCT-116, 2 Hour Exposure) [μg/mL] | Concentration Required for 10^−1 Survival Fraction (HCT-116 cells [1]; HCT-116, 24 Hour Exposure) | Concentration Required for 10^−1 Survival Fraction (HCT-116 cells [1]; HCT-116, Continuous Exposure) | zone of inhibition, CEM ([2]; dilution 1/10) [units] | zone of inhibition, CEM ([2]; dilution 1/100) [units] | zone of inhibition, CEM ([2]; dilution 1/1000) [units] | zone of inhibition, CEM [2, 8] [units] | zone of inhibition, Colon 38 ([3]; dilution 1/10) | zone of inhibition, Colon 38 ([3]; dilution 1/100) [units] | zone of inhibition, Colon 38 ([3]; dilution 1/1000) | zone of inhibition, Colon 38 [3, 8] [units] | Sum [3] | C38ΔL1210 [3, 9] | Product [3] | zone of inhibition, L1210 (L1210 (murine leukemia); dilution 1/100) [units] | zone of inhibition, L1210 (L1210 (murine leukemia); dilution 1/1000) | zone of inhibition, L1210 (L1210 (murine leukemia); [8]) [units] | IC90/IC50 (HCT-116 cells [4]) | zone of inhibition, H-125 M ([5]; dilution 1/10) [units] | zone of inhibition, H-125 M ([5]; dilution 1/100) [units] | further results
1 | CC1=CC(=O)[C@@H](O)[C@]2(C)[C@H]3[C@@]4(O)OC[C@]35[C@H]([C@@H](C)[C@H]4O)[C@@H](O)C(=O)O[C@@H]5C[C@@H]12 [Glaucarubolone, glaucarubolone] | >10 | 1 × 10^0 μg/mL | 2 × 10^−2 μg/mL | 600 | 0 | 0 | 900 | >1000 units and 600 units | 400 | 0 units | >1000 | 1150 and 800 | 550 and 400 | 4600 and 3600 | 0 | 0 units | 400 | 58 | 700 | 0 | zone of inhibition, Colon 38 ([3]; dilution 1/40): 400 units; C38ΔCFU ([3]; difference between zone of inhibition values, Colon38 vs normal cell CFU-GM): 600 and 400; IC50 (HCT-116 cells [4]; Homo sapiens, 72 h, read-out: IC50): 0.04 µg/mL (≈ 0.101 µM); IC90 (HCT-116 cells [4]; Homo sapiens, 72 h, read-out: IC90): 2.3 µg/mL (≈ 5.83 µM); zone of inhibition, H-125 M ([5]; dilution 1/1000): 0 units; zone of inhibition, H-125 M [5, 8]: >1000 units; zone of inhibition, H-116 ([6]; dilution 1/10): 600 units; zone of inhibition, H-116 ([6]; dilution 1/100): 0 units; zone of inhibition, H-116 ([6]; dilution 1/1000): 0 units; zone of inhibition, H-116 [6, 8]: >1000 units; zone of inhibition, murine CFU-GM (murine CFU-GM; dilution 1/10): 0 units; zone of inhibition, murine CFU-GM (murine CFU-GM; dilution 1/40): 0 units; zone of inhibition, murine CFU-GM (murine CFU-GM; dilution 1/100): 0 units; zone of inhibition, murine CFU-GM (murine CFU-GM; dilution 1/1000): 0 units; zone of inhibition, murine CFU-GM (murine CFU-GM; [8]): 50 units
2 | CC[C@@](O)(CC(=O)O[C@@H]1C(=O)O[C@@H]2C[C@@H]3C(C)=CC(=O)[C@H](O)[C@]3(C)[C@H]3[C@]4(O)OC[C@]32[C@@H]1[C@@H](C)[C@H]4O)C(C)C [Peninsularinone, peninsularinone] | >10 | 1 × 10^−2 μg/mL | 1 × 10^−3 μg/mL | >1000 | 800 | 500 | >1000 | >1000 units | >1000 | 800 units and 550 units | >1000 | 1100 and 550 | 450 and 250 | 6600 and 3575 | 700 | 300 units and 200 units | >1000 | 13 | >1000 | 1000 | maximum tolerated dose, Dose - 1 Mouse [7]: 0.01 mg/mouse and 0.45 mg/kg; zone of inhibition, Colon 38 ([3]; dilution 1/4000): 250 units; zone of inhibition, Colon 38 ([3]; dilution 1/10000): 200 units; zone of inhibition, L1210 (L1210 (murine leukemia); dilution 1/10): >1000 units; zone of inhibition, L1210 (L1210 (murine leukemia); dilution 1/4000): 50 units; zone of inhibition, L1210 (L1210 (murine leukemia); dilution 1/10000): 100 units; IC50 (HCT-116 cells [4]): 0.0012 µg/mL (≈ 0.00224 µM); IC90 (HCT-116 cells [4]): 0.015 µg/mL (≈ 0.028 µM); zone of inhibition, H-125 M ([5]; dilution 1/1000): 400 units; zone of inhibition, H-125 M [5, 8]: >1000 units; zone of inhibition, H-116 ([6]; dilution 1/10): >1000 units; zone of inhibition, H-116 ([6]; dilution 1/100): 950 units; zone of inhibition, H-116 ([6]; dilution 1/1000): 450 units; zone of inhibition, H-116 [6, 8]: >1000 units; zone of inhibition, murine CFU-GM (murine CFU-GM; dilution 1/10): >1000 units; zone of inhibition, murine CFU-GM (murine CFU-GM; dilution 1/100): 450 units; zone of inhibition, murine CFU-GM (murine CFU-GM; dilution 1/4000): 0 units; zone of inhibition, murine CFU-GM (murine CFU-GM; dilution 1/10000): 0 units; zone of inhibition, murine CFU-GM (murine CFU-GM; [8]): >1000 units
